Like-named read-outs stand apart in the source and are kept apart here.
Experiments:
[1] = test system: adult rat ventricular myocytes; test: Cardiomyocyte contractility assay (fractional shortening, IonOptix); assay type: cell-based; conditions: Ventricular myocyte, 5 min, 5 minutes of compound; for inhibition at 0.3 µM: 0.3 uM compound; for inhibition at 1 µM: 1.0 uM compound
Description: Contractility of adult rat ventricular myocytes is determined by edge detection with an IonOptix contractility system. Aliquots of myocytes in Tyrode buffer (137 mM NaCl, 3.7 mM KCL, 0.5 mM MgCl2, 1.5 mM CaCl2, 4 mM HEPES, 11 mM glucose) are placed in a perfusion chamber (Series 20 RC-27NE; Warner Instruments), allowed to adhere to the coverslip, and then perfused with 37° C. Tyrode buffer. Myocytes are filed stimulated at 1 Hz and 10V. Only myocytes with clear striations, quiescent prior to pacing, with a cell length of 120-180 microns, a basal fractional shortening equal to 3-8% of the cell length, and a contraction velocity greater than 100 microns per second are used for contractility experiments. To determine the response to compounds, myocytes are first perfused for 60 seconds with Tyrodes buffer followed by 5 minutes of compound and a 140 second washout with Tyrodes buffer. Data is continuously recorded using IonOptix software. Contractility data is analyzed using Ionwizard software (IonOptix). For each cell, 10-20 contractility transients were averaged and compared under basal (no compound) and compound-treated conditions. Compound activity is measured by effects on fractional shortening (FS), where fractional shortening is the ratio of the peak length of the cell at contraction divided by the basal cell length normalized to 100% for an untreated cell.

[2] = test system: cardiac contractility in rat; test: Acute pharmacodynamic effect in rat (echocardiographic fractional shortening); assay type: in vivo; conditions: male Sprague-Dawley rats, single dose 4 mg/kg by oral gavage, percent reduction of baseline
Description: Representative compounds were tested for their ability to modulate cardiac contractility in rat as a measure of in vivo target engagement. Fractional shortening, a measure of contractility, was determined by noting the change in the diameter of the left ventricle at the end of systole/contraction (LVESd) relative to diastole/relaxation (LVEDd) and expressing this change as the ratio FS=(LVEDd−LVESd)/LVEDd. Fed male Sprague-Dawley rats were lightly anesthetized with isofluorane and baseline fractional shortening was measured in the parasternal position using transthoracic echocardiography (TTE). Following this measurement, animals were recovered and received a single dose of compound (4 mg/kg) by oral gavage. At three hours post-dose, second and third echocardiograms were collected under light anesthesia to determine drug effects on contractility. Effects are represented in Table 5 as a percent reduction of baseline fractional shortening.

[3] = molecular target: T1, bovine cardiac myosin (Bos taurus, UniProt Q9BE39); test: Myosin inhibition assay (PK/LDH-coupled ATPase, bovine cardiac myofibrils); assay type: biochemical; conditions: bovine cardiac myofibrils
T1 construct: The source of cardiac myosin was from bovine heart in the form of skinned myofibrils; from tissue; host or cells: bovine heart, skinned myofibrils

[4] = calcium giving 75% activation (pCa75), read-out: Biochemical Activity (pCa75)
[5] = calcium giving 50% activation (pCa50), read-out: Biochemical Activity (pCa50)

T1 sequence (Q9BE39 whole entry): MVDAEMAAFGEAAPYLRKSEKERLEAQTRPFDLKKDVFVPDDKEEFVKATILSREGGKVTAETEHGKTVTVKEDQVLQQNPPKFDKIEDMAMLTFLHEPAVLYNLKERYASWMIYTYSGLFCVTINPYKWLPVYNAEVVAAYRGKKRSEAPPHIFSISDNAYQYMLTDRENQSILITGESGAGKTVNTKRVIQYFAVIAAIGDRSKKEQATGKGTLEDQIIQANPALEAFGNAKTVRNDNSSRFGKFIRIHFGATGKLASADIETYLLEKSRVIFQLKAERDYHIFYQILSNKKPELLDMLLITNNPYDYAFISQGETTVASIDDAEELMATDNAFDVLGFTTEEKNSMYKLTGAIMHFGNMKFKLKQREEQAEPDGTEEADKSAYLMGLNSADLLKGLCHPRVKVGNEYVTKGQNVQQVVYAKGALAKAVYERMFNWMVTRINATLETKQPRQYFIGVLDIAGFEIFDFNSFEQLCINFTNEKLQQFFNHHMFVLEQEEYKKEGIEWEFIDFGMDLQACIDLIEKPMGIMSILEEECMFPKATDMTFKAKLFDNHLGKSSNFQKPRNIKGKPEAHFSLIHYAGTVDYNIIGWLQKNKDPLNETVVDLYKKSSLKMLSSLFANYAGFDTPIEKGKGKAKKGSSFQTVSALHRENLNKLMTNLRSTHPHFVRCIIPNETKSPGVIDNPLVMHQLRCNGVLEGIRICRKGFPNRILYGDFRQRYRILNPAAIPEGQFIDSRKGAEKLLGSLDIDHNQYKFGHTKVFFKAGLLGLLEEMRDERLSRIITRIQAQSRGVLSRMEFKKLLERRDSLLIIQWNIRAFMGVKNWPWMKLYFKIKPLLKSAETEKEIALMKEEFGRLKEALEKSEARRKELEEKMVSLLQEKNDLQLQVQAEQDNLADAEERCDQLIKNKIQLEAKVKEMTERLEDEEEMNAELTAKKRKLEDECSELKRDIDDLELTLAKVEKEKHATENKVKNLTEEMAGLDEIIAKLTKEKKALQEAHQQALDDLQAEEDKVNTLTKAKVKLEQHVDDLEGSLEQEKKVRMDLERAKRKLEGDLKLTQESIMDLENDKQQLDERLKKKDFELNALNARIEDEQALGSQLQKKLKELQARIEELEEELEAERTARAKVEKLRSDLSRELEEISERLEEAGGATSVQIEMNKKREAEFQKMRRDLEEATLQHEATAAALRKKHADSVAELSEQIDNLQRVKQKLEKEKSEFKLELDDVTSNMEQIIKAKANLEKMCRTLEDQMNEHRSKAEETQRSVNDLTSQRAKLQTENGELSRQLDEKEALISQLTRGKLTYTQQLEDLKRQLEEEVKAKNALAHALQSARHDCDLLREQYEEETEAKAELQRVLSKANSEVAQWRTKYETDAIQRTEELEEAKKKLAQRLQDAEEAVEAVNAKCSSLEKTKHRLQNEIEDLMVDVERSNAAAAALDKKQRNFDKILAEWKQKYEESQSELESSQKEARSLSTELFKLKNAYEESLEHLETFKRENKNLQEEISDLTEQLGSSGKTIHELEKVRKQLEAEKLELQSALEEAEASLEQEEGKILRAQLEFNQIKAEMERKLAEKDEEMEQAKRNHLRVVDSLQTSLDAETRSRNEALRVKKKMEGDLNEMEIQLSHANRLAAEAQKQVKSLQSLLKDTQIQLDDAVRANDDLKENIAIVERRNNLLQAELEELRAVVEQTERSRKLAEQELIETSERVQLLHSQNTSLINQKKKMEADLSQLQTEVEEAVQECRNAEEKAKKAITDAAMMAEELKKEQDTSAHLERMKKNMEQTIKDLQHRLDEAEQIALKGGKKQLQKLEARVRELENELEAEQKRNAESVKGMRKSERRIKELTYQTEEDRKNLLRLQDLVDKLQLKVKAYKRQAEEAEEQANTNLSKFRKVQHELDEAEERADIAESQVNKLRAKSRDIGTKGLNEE
T1 sequence (P85100 whole entry partner): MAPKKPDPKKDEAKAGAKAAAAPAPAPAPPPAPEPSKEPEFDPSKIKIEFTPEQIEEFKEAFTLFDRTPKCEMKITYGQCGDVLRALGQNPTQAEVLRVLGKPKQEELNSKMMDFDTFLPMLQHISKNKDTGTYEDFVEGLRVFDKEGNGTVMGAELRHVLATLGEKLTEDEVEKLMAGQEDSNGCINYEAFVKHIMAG
T1 sequence (Q3SZE5 whole entry partner): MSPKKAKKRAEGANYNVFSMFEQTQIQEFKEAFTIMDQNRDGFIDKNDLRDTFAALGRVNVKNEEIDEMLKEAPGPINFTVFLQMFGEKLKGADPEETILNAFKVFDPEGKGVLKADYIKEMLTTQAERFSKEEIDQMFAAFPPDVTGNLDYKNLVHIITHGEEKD

IC50 [3, 4]	IC50 [3, 5]	Compound	inhibition at 0.3 µM [1]	inhibition at 1 µM [1]	% Reduction in Fractional Shortening 3 h post-dose [2]
–	–	CC(C)n1c(=O)cc(N[C@@H](C)c2ccccc2)[nH]c1=O [Compound 1, (S)-3-Isopropyl-6-((1-phenylethyl)amino) pyrimidine-2,4(1H,3H)-dione]	33 to 66%	> 66%	+++ (+++ presents a relative change in fractional shortening greater than 30%)
1000 to 15000 nM	–	CC(C)n1c(=O)[nH]c(N[C@@H](C)c2ccccc2)c(F)c1=O [Compound 2, (S)-5-Fluoro-3-isopropyl-6-((1-phenylethyl)amino)pyrimidine-2,4(1H,3H)-dione]	33 to 66%	> 66%	–
< 1000 nM	–	C[C@H](Nc1cc(=O)n(C2CCN(S(C)(=O)=O)CC2)c(=O)[nH]1)c1ccccc1 [Compound 12, (S)-3-(1-(methylsulfonyl)piperidin-4-yl)-6-(1-phenylethylamino)pyrimidine-2,4(1H,3H)-dione]	–	33 to 66%	–
–	–	CC(C)n1c(=O)cc(N[C@H](C)c2ccccc2)[nH]c1=O [Compound 19R]	–	< 33%	–
< 1000 nM	< 1000 nM	CC(C)n1c(=O)cc(N[C@@H](C)c2cccc(F)c2)[nH]c1=O [Compound 27]	33 to 66%	–	–
< 1000 nM	< 1000 nM	C[C@H](Nc1cc(=O)n(-c2ccccc2)c(=O)[nH]1)c1ccccc1 [Compound 45]	–	–	+ (+ represents a relative change in fractional shortening less than 15%)
1000 to 15000 nM	1000 to 15000 nM	CCCn1c(=O)cc(N[C@@H](C)c2ccccc2)[nH]c1=O [Compound 48, (S)-6-((1-phenylethyl)amino)-3-propylpyrimidine-2,4(1H,3H)-dione]	–	–	+++ (+++ presents a relative change in fractional shortening greater than 30%)
< 1000 nM	< 1000 nM	C[C@H](Nc1cc(=O)n(-c2cc(F)cc(F)c2)c(=O)[nH]1)c1ccccc1 [Compound 49, (S)-3-(3,5-difluorophenyl)-6-((1-phenylethyl)amino)pyrimidine-2,4(1H,3H)-dione]	–	–	+++ (+++ presents a relative change in fractional shortening greater than 30%)
–	< 1000 nM	C[C@H](Nc1cc(=O)n(CC(F)(F)F)c(=O)[nH]1)c1ccc2c(c1)OCO2 [Compound 67, (S)-6-((1-(benzo[d][1,3]dioxol-5-yl)ethyl)amino)-3-(2,2,2-trifluoroethyl)pyrimidine-2,4(1H,3H)-dione]	–	> 66%	–
1000 to 15000 nM	< 1000 nM	C[C@H](Nc1cc(=O)n(C2CCC2)c(=O)[nH]1)c1ccccc1 [Compound 69, (S)-3-cyclobutyl-6-((1-phenylethyl)amino)pyrimidine-2,4(1H,3H)-dione]	–	–	+ (+ represents a relative change in fractional shortening less than 15%)
1000 to 15000 nM	–	CC(C)n1c(=O)cc(N[C@@H](C)c2ccccc2C(F)(F)F)[nH]c1=O [Compound 70, (S)-3-isopropyl-6-((1-(2-(trifluoromethyl)phenyl)ethyl)amino) pyrimidine-2,4(1H,3H)-dione]	–	–	++ (++ represents a relative change in fractional shortening between 15-30%)
–	< 1000 nM	C[C@H](Nc1cc(=O)n(C2(C)CC2)c(=O)[nH]1)c1ccccc1 [Compound 71, (S)-3-(1-methylcyclopropyl)-6-((1-phenylethyl)amino)pyrimidine-2,4(1H,3H)-dione]	–	–	+++ (+++ presents a relative change in fractional shortening greater than 30%)
–	< 1000 nM	CCn1c(=O)cc(N[C@@H](C)c2ccc(F)c(F)c2)[nH]c1=O [Compound 134]	–	–	–
–	< 1000 nM	CC[C@H](C)n1c(=O)cc(N[C@@H](C)c2ccc(F)cc2)[nH]c1=O [Compound 135]	–	–	–
–	< 1000 nM	CCCn1c(=O)cc(N[C@@H](C)c2ccc(F)cc2)[nH]c1=O [Compound 136]	–	–	–
–	< 1000 nM	C[C@H](Nc1cc(=O)n(-c2cccc(F)n2)c(=O)[nH]1)c1ccccc1 [Compound 137]	–	–	–
